From US9388419B2 (The Regents of the University of Colorado, a body corporate, priority 2009, dated 2016)
Like-named read-outs stand apart in the source and are kept apart here.

How the values were obtained:
E. coli Mach1-T1 = experiment: Minimum inhibitory concentration (MIC) of 3-HP, microaerobic, 96 well-plate, MOPS minimal media; format: cell-based, Escherichia coli; settings: E. coli Mach1-T1, MOPS minimal media with the supplement at its optimal concentration vs unsupplemented, microaerobic, 24 hours
Procedure: Overnight cultures of strains were grown in 5 ml LB (with antibiotic where appropriate). A 1 v/v % was used to inoculate a 15 ml conical tube filled to the top with MOPS minimal media and capped. After the cells reached mid exponential phase, the culture was diluted to an OD600 of 0.200. The cells were further diluted 1:20 and a 10 ul aliquot was used to inoculate each well (˜10^4 cells per well).
The minimum inhibitory concentration (MIC) was determined microaerobically in a 96 well-plate format. Overnight cultures of strains were grown in 5 mL LB (with antibiotic where appropriate). A 1% (v/v) inoculum was introduced into a 15 ml culture of MOPS minimal media. After the cells reached mid-exponential phase, the culture was diluted to an OD600 of 0.200. The cells were further diluted 1:20 and a 10 μL aliquot was used to inoculate each well of a 96 well plate (˜10^4 cells per well).

[1] = system: Yeast strains (S288C background); format: cell-based, Saccharomyces cerevisiae; settings: anaerobic; for % Increase Over Control: increase of 3-HP MIC over S288C in SD without supplement; for Average MIC Assay Result (g/L 3-HP): MIC of 3-HP for yeast S288C in SD media with the named supplement(s)
Procedure: The minimum inhibitory concentration (MIC) was determined anaerobically in a 96 well-plate format. […] A 1% (v/v) inoculum was introduced into a 5 ml culture of SD minimal media without vitamins. After the cells reached mid-exponential phase, the culture was diluted to an OD600 of 0.200. The cells were further diluted 1:5 and a 10 μL aliquot was used to inoculate each well of a 96 well plate (˜10^4 cells per well) to total volume of 100 uL. […] Plates were incubated for 72 hours at 30 C. […] Plates were sealed in biobag anaerobic chambers that contained gas generators for anaerobic conditions and incubated for 72 hours at 30 C.

E. coli [2] = format: cell-based, Escherichia coli; settings: anaerobic; for MIC Assay Result (g/L 3-HP): MIC of 3-HP for E. coli BW25113 in M9 media with the named supplement(s), 24-hour; for % Increase Over Control: increase of 3-HP MIC over BW25113 in M9 without supplement
Procedure: (§1) For MIC evaluations, the final results are expressed in chemical agent concentrations determined by analysis of the stock solution by HPLC (i.e., see Subsection Mb).
(§2) The minimum inhibitory concentration (MIC) was determined anaerobically in a 96 well-plate format. […] Media supplements were added according to levels reported in the Supplements Table, where specified. Overnight cultures of strains were grown in triplicate in 5 mL LB (with antibiotic where appropriate). A 1% (v/v) inoculum was introduced into a 5 ml culture of M9 minimal media.

E. coli [3] = format: cell-based, Escherichia coli; settings: strain BW25113, M9 media with the named supplement(s), aerobic; MIC of 3-HP versus M9 control without supplement
Procedure: as §1
as §2, with “aerobically” for “anaerobically”

[4] = system: Yeast strains (S288C background); format: cell-based, Saccharomyces cerevisiae; settings: aerobic; for % Increase Over Control: increase of 3-HP MIC over S288C in SD without supplement; for Average MIC Assay Result (g/L 3-HP): MIC of 3-HP for yeast S288C in SD media with the named supplement(s)
Procedure: The minimum inhibitory concentration (MIC) was determined aerobically in a 96 well-plate format. […] Media supplements were added according to levels reported in the Supplements Table, where specified. Overnight cultures of strains were grown in triplicate in 5 mL SD media with vitamins (Methods in Enzymology vol. 350, page 17 (2002)). A 1% (v/v) inoculum was introduced into a 5 ml culture of SD minimal media without vitamins. After the cells reached mid-exponential phase, the culture was diluted to an OD600 of 0.200. The cells were further diluted 1:5 and a 10 μL aliquot was used to inoculate each well of a 96 well plate (˜10^4 cells per well) to total volume of 100 uL. […] Plates were incubated for 72 hours at 30 C.

B. subtilis = experiment: MIC protocol B. subtilis aerobic (Common Methods, M9 media + glutamate, 24 hours); format: cell-based, Bacillus subtilis; settings: for Avg 24 hr ΔOD600: B. subtilis 168 in M9 + glu + trp with the named supplement(s), 3HP tolerance; for % Increase Over Control: increase of 24 hr ΔOD600 over B. subtilis 168 without supplement
Procedure: as §1
as §2, with “aerobically” for “anaerobically”, “Table” for “Table,”, “media+glutamate.” for “media.”

E. coli K12 = format: cell-based, Escherichia coli; settings: E. coli K12, M9 minimal media supplemented with the substance (polyamines 0.1 g/L, sodium bicarbonate 20 mM), aerobic, 24 hours
Procedure: Overnight cultures of strains were grown in 5 ml LB (with antibiotic where appropriate) at 37° C. in a shaking incubator. A 1 v/v % was used to inoculate 10 mL of M9 minimal media. After the cells reached mid-exponential phase, the culture was diluted to an OD600 of 0.200. The cells were further diluted 1:20 and a 10 ul aliquot was used to inoculate each well (˜10^4 cells per well). […] The MIC endpoint is the lowest concentration of compound at which there was no visible growth.

strain BX3_0194 = experiment: 3-HP production by BX3_0194 at 100-mL scale in SM3 medium, without or with 10 μg/ml cerulenin; format: cell-based, E. coli
Procedure: Cultures were started from freezer stocks by standard practice (Sambrook and Russell, 2001) into 50 mL of LB media plus 100 μg/mL ampicillin and grown to stationary phase overnight at 37° C. with rotation at 225 rpm. Five ml of this culture were transferred to 100 ml of SM3 media plus 40 g/L glucose, 100 μg/ml ampicillin, and 1 mM IPTG in triplicate 250-ml baffled flasks and incubated at 37° C., 225 rpm. […] Dry cell weight (DCW) is calculated as 0.33 times the measured OD600 value, based on baseline DCW to OD600 determinations. All data are the average of triplicate cultures.

Row | Compound | MIC increase (3-HP) resulting from supplementation (E. coli Mach1-T1) | % Increase Over Control [1] | % Increase Over Control (E. coli [3]) | further results
1 | N[C@@H](CCO)C(=O)O [homoserine] | 33% | – | – | –
2 | CCC(=O)C(=O)O [oxobutanoate] | 7% | – | – | –
3 | NCCCCNCCCN [Spermidine (C)] | – | 60% | – | –
4 | Nc1ccc(C(=O)O)cc1 [p-aminobenzoate (A)] | – | – | 27% | MIC Assay Result (g/L 3-HP) (E. coli [2]): 40.0 g/L; % Increase Over Control (E. coli [2]): 33%
5 | N[C@@H](CC(=O)O)C(=O)O [Aspartate] | – | – | – | % Increase Over Control [4]: 26%
6 | CCC(=O)C(=O)O [2-oxobutyrate (B)] | – | 2% | – | Average MIC Assay Result (g/L 3-HP) [4]: 50 g/L; % Increase Over Control [4]: 11%; Average MIC Assay Result (g/L 3-HP) [1]: 38 g/L
7 | O=C(O)CC(O)(CC(=O)O)C(=O)O [Citrate] | – | – | – | Avg 24 hr ΔOD600 (B. subtilis): 0.30
8 | N[C@@H](Cc1ccccc1)C(=O)O [Phenylalanine (A)] | – | 2% | 17% | –
9 | Nc1nc(=O)c2c([nH]1)NC[C@@H](CNc1ccc(C(=O)N[C@@H](CCC(=O)O)C(=O)O)cc1)N2 [Tetrahydrofolate (A)] | – | – | 9% | MIC Assay Result (g/L 3-HP) (E. coli [2]): 40.0 g/L; % Increase Over Control (E. coli [2]): 33%
10 | NC(=O)CC[C@H](N)C(=O)O [Glutamine(C)] | – | – | 9% | –
11 | CC[C@H](C)[C@H](N)C(=O)O [Isoleucine (B)] | – | 2% | 17% | Average MIC Assay Result (g/L 3-HP) [1]: 38 g/L
12 | O=C(O)O [Bicarbonate (C)] | – | 140% | 59% | Average MIC Assay Result (g/L 3-HP) [1]: 90 g/L
13 | N[C@@H](CO)C(=O)O [Serine (B)] | – | 20% | 17% | % Increase Over Control (E. coli [2]): 7%; Average MIC Assay Result (g/L 3-HP) [1]: 45 g/L
14 | O=C(O)c1cccc(O)c1O [2,3-didyroxybenzoic acid, 2,3-dihydroxybenzoic acid] | 33% | – | – | –
15 | NCCC[C@H](N)C(=O)O [Ornithine(C)] | – | – | 9% | –
16 | NCCCCCN [Cadaverine (C)] | – | 60% | – | –
17 | O=C([O-])O.[Na+] [sodium bicarbonate] | – | – | – | Avg 24 hr ΔOD600 (B. subtilis): 0.06; % Increase Over Control (B. subtilis): 56%; Minimum inhibitory concentration (MIC) of 3-HP in supplemented media (E. coli K12): 30 mg/mL

Row | Compound | MIC increase (3-HP) resulting from supplementation (E. coli Mach1-T1) | % Increase Over Control [1] | % Increase Over Control (E. coli [3]) | further results
18 | Nc1ccc(C(=O)O)cc1 [p-aminobenzoic acid] | 7% | – | – | Avg 24 hr ΔOD600 (B. subtilis): 0.07; % Increase Over Control (B. subtilis): 89%
19 | N[C@@H](Cc1ccccc1)C(=O)O [phenylalanine] | 33% | – | – | –
20 | C[C@@H](O)[C@H](N)C(=O)O [Threonine (B)] | – | 2% | – | –
21 | NCCCC[C@H](N)C(=O)O [Lysine (D)] | – | 20% | 33% | % Increase Over Control (E. coli [2]): 39%; Average MIC Assay Result (g/L 3-HP) [1]: 45 g/L
22 | N[C@@H](Cc1c[nH]c2ccccc12)C(=O)O [tryptophan] | 33% | – | – | –
23 | Cl.NC1CCSC1=O (stereo not drawn) [homocysteine thiolactone hydrochloride] | 60% | – | – | –
24 | C[C@@H](O)[C@H](N)C(=O)O [threonine] | 3% | – | – | –
25 | NC(CCS)C(=O)O (stereo not drawn) [Homocysteine (B)] | – | 7% | 9% | Average MIC Assay Result (g/L 3-HP) [1]: 40 g/L
26 | N[C@@H](Cc1c[nH]c2ccccc12)C(=O)O [Tryptophan (A)] | – | 47% | – | % Increase Over Control [4]: 20%
27 | CSCC[C@H](N)C(=O)O [Methionine] | – | – | – | Avg 24 hr ΔOD600 (B. subtilis): 0.15
28 | O=C(O)C1=C[C@@H](O)[C@@H](O)[C@H](O)C1 [Shikimate (A)] | – | 60% | 3% | Average MIC Assay Result (g/L 3-HP) [4]: 80 g/L; % Increase Over Control [4]: 78%; Average MIC Assay Result (g/L 3-HP) [1]: 60 g/L
29 | NC(=O)NCCC[C@H](N)C(=O)O [Citrulline (C)] | – | – | 9% | Average MIC Assay Result (g/L 3-HP) [4]: 58 g/L; % Increase Over Control [4]: 28%; Average MIC Assay Result (g/L 3-HP) [1]: 97 g/L
30 | NNC(=O)c1ccc(O)cc1 [p-hydroxybenzoic acid hydrazide] | 33% | – | – | –
31 | NCC(=O)O [Glycine (B)] | – | 60% | – | Average MIC Assay Result (g/L 3-HP) [4]: 50 g/L; % Increase Over Control [4]: 11%; Average MIC Assay Result (g/L 3-HP) [1]: 60 g/L
32 | Cc1ncc(CO)c(CO)c1O.Cl [pyridoxine hydrochloride] | 0% | – | – | –
33 | N[C@@H](Cc1ccc(O)cc1)C(=O)O [tyrosine] | 40% | – | – | –
34 | C/C=C/C/C=C/CCC(=O)[C@H]1O[C@H]1C(N)=O [cerulenin] | – | – | – | 3HP (strain BX3_0194; 4 hr): 0.003 g/L; 3HP (strain BX3_0194; 6 hr): 0.14 g/L; 3HP (strain BX3_0194; 8 hr): 0.43 g/L; 3HP (strain BX3_0194; 24 hr): 1.43 g/L
